Reference: US11525063B2, “Fluorescent oxygen sensing ink” (The Board of Trustees of Western Michigan University, priority 2018, dated 2022)
Read-outs that look alike come from different tables or passages of the source.

Key:
[1] = test system: L-929 mouse fibroblast cells
Protocol: (§1) All samples were ≤0.5 mm thick and prepared as 8 mm-diameter discs (surface area of 0.50 cm^2). […] An aliquot was counted using trypan blue, and then cells were re-suspended in complete growth medium at a density of 1×10^5 cells/ml. […] After 24 h, the culture medium was removed and replaced with 100 μl of extractant. Some wells received sodium dodecyl sulfate (0 to 400 μM in EMEM; positive controls), low-density polyethylene extract (1.25 cm^2 LDPE/ml EMEM; negative control), or complete growth medium alone. Cells were then cultured for an additional 24 h. Images (mag. of 100× and 200×) of cell cultures were recorded by photo microscopy using a Olympus CK40 inverted microscope and Insight2 SPOT camera (Diagnostic Imaging) and the number of attached and dead cells were manually counted at a later time using ImageJ (NIH). […] Subsequently, cells in culture plates were washed once with Hank's Balanced Salt Solution and metabolic activity was measured by incubating cells with 100 μl of WST-1 cell proliferation reagent (Roche Diagnostics) for up to 4 h at 37° C. To determine cytotoxicity, absorbance of the medium in wells was measured at 450 nm after 2 and 4 h using a microplate reader (PHERAstar) and was corrected using absorbance measurements at 630 nm and using blanks. To check for mycoplasma contamination of the cultures, medium was saved and tested using the luminescent MycoAlert Plus mycoplasma detection kit (Lonza).
Absorbance is proportional to the amount of formazan product generated by the metabolic activity of cells. Thus, lower absorbance values correlate with increased cytotoxicity.
An aliquot was counted using trypan blue, and then cells were re-suspended in complete growth medium at a density of 1×10^5 cells/ml. […] After 24 h, the culture medium was removed and replaced with 100 μl of extractant. Some wells received sodium dodecyl sulfate (SDS; 0 to 400 μM in EMEM; positive controls), low-density polyethylene extract (1.25 cm^2 LDPE/ml EMEM; negative control) or complete growth medium alone. Cells were then cultured for an additional 24 h. Subsequently, cells in culture plates were washed once with HBSS and metabolic activity was measured by incubating cells with 100 μl of WST-1 cell proliferation reagent (Roche Diagnostics) for up to 4 h at 37° C.
To determine cytotoxicity, absorbance of the medium in wells was measured at 450 nm after 2 and/or 4 h using a microplate reader (PHERAstar) and was corrected using absorbance measurements at 630 nm and using blanks. Absorbance levels are proportional to the metabolic activity of cells and therefore inversely related to cytotoxicity. To check for mycoplasma contamination of the cultures, medium was saved and tested using the luminescent MycoAlert Plus mycoplasma detection kit (Lonza). Statistical significance was determined using analysis of variance and Tukey-Kramer post-test.

[2] = Effect of sterilization process (H2O2 vapor treatment) on emission peak; type: physicochemical
Protocol: The fluorescent properties of two materials being encapsulated in both poly-styrene and PDMS (polydimethylsiloxane) polymer binder materials were measured to determine the suitability of the materials in an oxygen sensing system. […] Then 20 μL of mixed solution was cast onto filter paper to form a patch with a diameter of 8 mm. The patch was left in the nitrogen chamber for drying for 24-hours before testing. The PDMS encapsulated sensing patches were fabricated by firstly depositing dye solution onto the filter paper. PDMS was then added to the filter paper after the removal of the solvent. The same amount of dye was used for all samples. The fluorescence spectrum was measured using a UV spectrophotometer. A zero oxygen solution was prepared by nitrogen bubbling a 0.15 mol/L Na2SO3 solution for 30 minutes.

[3] = test system: L-929 mouse fibroblast cells; conditions: 150 μM SDS in EMEM, 24 h
Protocol: as §1, with “To check for mycoplasma contamination of the cultures, medium was saved and tested using the luminescent MycoAlert Plus mycoplasma detection kit (Lonza).” left out

Structure (SMILES) | cytotoxicity of extract (conclusion in words) ([1]; cells treated 24 h with extract of Sterrad-sterilized sample) | cytotoxicity of extract (conclusion in words) ([1]; cells treated 24 h with extract of Sterrad-sterilized sample, listed as ruthenium alone on paper) | Mean absorbance (corrected, 450 nm) ([1]; cells treated 24 h with extract of Sterrad-sterilized sample, lower absorbance = more cytotoxic) | metabolic activity relative to cells cultured in EMEM alone ([1]; cells treated 24 h with extract, below 70% considered cytotoxic) | stability to H2O2 vapor treatment [2] | Emission peak After Sterilization ([2]; after H2O2 vapor treatment) | Emission peak Before Sterilization ([2]; before H2O2 vapor treatment) | Mean absorption reading ([1]; 300 μM SDS in EMEM, 24 h) | Concentrations of SDS that were cytotoxic ([1]; mouse) | Morphology score [3]
[Cl-].[Cl-].[Ru+2].c1ccc(-c2ccnc3c2ccc2c(-c4ccccc4)ccnc23)cc1.c1ccc(-c2ccnc3c2ccc2c(-c4ccccc4)ccnc23)cc1.c1ccc(-c2ccnc3c2ccc2c(-c4ccccc4)ccnc23)cc1 [Ru(dpp)3Cl2, Tris(4,7-diphenyl-1,10-phenanthroline) ruthenium II dichloride] | considerable cytotoxicity | cytotoxic | 0.318 | 38.4% | more vulnerable | No emission peak detected | Emission peak detected |  |  | 
CCCCCCCCCCCCOS(=O)(=O)[O-].[Na+] [SDS, sodium dodecyl sulfate, reference compound] |  |  |  |  |  |  |  | 0 | above 200 μM | 2
